Data from paper PMC9329436, “Optimization of the 4-anilinoquin(az)oline scaffold as epidermal growth factor receptor (EGFR) inhibitors for chordoma utilizing a toxicology profiling assay platform” (Scientific Reports, 2022).

system: HL60 cells; assay: AsedaSciences SYSTEMETRIC Cell Health Screen (flow cytometry toxicity profiling); conditions: HL60, 4 h, 5 nM–100 µM, probability 0–1, n = 2
Description: To prioritize further optimization, in addition to cellular potency, we utilized the AsedaSciences® […]® Cell Health Screen. This live cell flow cytometry (FC) screen was developed to assess human safety risk for candidate pharmaceutical small molecules at the early hit-to-lead stage of development. The screen works by estimating the risk using a supervised machine learning (ML) classifier to assess a multiparametric cellular stress phenotype, produced by the test compound, relative to a training set of known compounds (Table S1). This screen has been designed for early pipeline risk estimation regardless of pharmaceutical class/disease type, so it uses HL60 as the reporter cell line.
The ML classifier was trained with 300 historically known compounds (on market or withdrawn drugs, research compounds, etc.), which were divided into two outcome classes based upon literature, clinical trials, and market histories where applicable. This external curation informed an outcome of “high-risk” or “low-risk”. All 300 compounds were also processed through the automated FC screen, populating each of the two classes with frequency distributions of empirical cell-based phenotypes.
To estimate human safety risk for an unknown compound, the ML classifier assesses the similarity of the test compound’s cell-based phenotype to the distributions of phenotypes in the two outcome classes. […] Phenotypes are derived from twelve FC detection parameters, including light scatter and a series of fluorescent physiological reporter dyes, that track cell stress-related endpoints.
To produce the Cell Health Index, the ML classifier uses all twelve FC parameters simultaneously in a multidimensional logistic regression model, so the CHI contains the most predictive power. In addition to the Cell Health Index, Table 4 also reports probability scores for eight cell stress-related endpoints. These scores are produced individually by passing information to the ML classifier relating to parameters that inform that endpoint. For example, to produce the cell morphology (CM) score, the ML classifier only uses the FC detection parameters for forward scatter (informing change in cell diameter) and side scatter (informing change in optical granularity of the cell) to inform the model. Together, these eight endpoints provide a “biological fingerprint”, allowing assessment of the degree to which SAR series members behave differently across endpoints.
In a 384-well platform, HL60 cells were exposed to a 10-step, 3 × dilution series of each test compound (5 nM–100 µM) for 4 h at 37 °C with 5% CO2. Each dilution series was screened in duplicate, occupying a total of 20 wells, allowing 16 test compounds to be assayed per plate. Each row contained one positive and one negative control well, for a total of 16 replicate positive/negative control pairs on each assay plate. Compound formatting, cell deposition, and dye application were performed robotically so that final assay conditions comprised 100,000 cells in a 40 µL volume. After the 4 h compound exposure, cells were immediately stained with a panel of fluorescent dyes that report physiological signatures of both mitochondrial dysfunction and gross cell stress. Fluorescence and forward/side-scatter data were collected using automated FC with no gating. FC data are processed by an automated algorithm for producing quality control measures and ML classification of compound phenotypes. • 2. HL60 cell culture production
HL60 cells were produced as suspension cultures in glass 850 cm^2 roller bottles with vented caps, at 1 RPM, 5% CO2, and 37 °C. […] Culture density was maintained at or below 1 × 10^6 cells/mL.

Row | SMILES | CC: Cell Cycle score | CM: Cell morphology score | CMI: Cell membrane integrity score | GSH: Glutathione score | MMP: Mitochondrial membrane depolarization score | NMI1: Nuclear membrane integrity 1 score | NMI2: Nuclear membrane integrity 2 score | ROS: Reactive superoxide species score
1 | Cc1ccc(=O)n(-c2ccccc2)c1 [Pirfenidone, reference compound] | 0.060 | 0.00 | 0.090 | 0.040 | 0.010 | 0.040 | 0.030 | 0.020
2 | CN1CCN(CCCN2c3ccccc3Sc3ccc(Cl)cc32)CC1 [Prochlorperazine, reference compound] | 0.96 | 1.00 | 1.00 | 1.00 | 1.00 | 1.00 | 0.99 | 1.00
3 | CC(CN1c2ccccc2Sc2ccccc21)N(C)C (centres unmarked) [Promethazine, reference compound] | 0.46 | 1.00 | 0.98 | 0.96 | 0.97 | 0.84 | 0.94 | 0.98
4 | CC(C)NCC(O)COc1cccc2ccccc12 (centres unmarked) [Propranolol, reference compound] | 0.24 | 0.060 | 0.20 | 0.11 | 0.010 | 0.69 | 0.23 | 0.18
5 | NC(=O)c1ncn([C@@H]2O[C@H](CO)[C@@H](O)[C@H]2O)n1 [Ribavirin, reference compound] | 0.040 | 0.010 | 0.070 | 0.060 | 0.000 | 0.16 | 0.030 | 0.23
6 | CN(CCOc1ccc(CC2SC(=O)NC2=O)cc1)c1ccccn1 (centres unmarked) [Rosiglitazone, reference compound] | 0.27 | 0.49 | 0.23 | 0.53 | 0.050 | 0.23 | 0.27 | 0.070
7 | C=C(C)[C@H]1Cc2c(ccc3c2O[C@@H]2COc4cc(OC)c(OC)cc4[C@@H]2C3=O)O1 [Rotenone, reference compound] | 0.70 | 0.93 | 0.83 | 0.79 | 0.99 | 0.54 | 0.76 | 0.94
8 | CCC(C)(C)C(=O)O[C@H]1C[C@@H](C)C=C2C=C[C@H](C)[C@H](CC[C@@H]3C[C@@H](O)CC(=O)O3)[C@H]21 [Simvastatin, reference compound] | 0.12 | 0.030 | 0.080 | 0.41 | 0.060 | 0.29 | 0.10 | 0.11
9 | O=C(O)c1cc(/N=N/c2ccc(S(=O)(=O)Nc3ccccn3)cc2)ccc1O [Sulfasalazine, reference compound] | 0.10 | 0.010 | 0.060 | 0.030 | 0.31 | 0.14 | 0.63 | 0.090
10 | CC/C(=C(\c1ccccc1)c1ccc(OCCN(C)C)cc1)c1ccccc1 [Tamoxifen, reference compound] | 0.98 | 1.00 | 1.00 | 1.00 | 1.00 | 1.00 | 0.99 | 1.00
11 | Cc1cn([C@@H]2C[C@@H](O)[C@H](CO)O2)c(=O)[nH]c1=O [Telbivudine, reference compound] | 0.020 | 0.010 | 0.040 | 0.070 | 0.010 | 0.11 | 0.050 | 0.030
12 | CC(C)(C)c1ccc(C(O)CCCN2CCC(C(O)(c3ccccc3)c3ccccc3)CC2)cc1 (centres unmarked) [Terfenadine, reference compound] | 0.98 | 1.00 | 1.00 | 1.00 | 1.00 | – | – | 1.00
13 | COc1cc2c(Nc3ccc(Cl)c(Cl)c3F)ncnc2cc1OC[C@@H]1C[C@@H]2CN(C)C[C@@H]2C1 [Tesevatinib, reference compound] | 0.96 | 1.00 | 1.00 | 1.00 | 1.00 | 0.91 | 0.99 | 1.00
14 | CSc1ccc2c(c1)N(CCC1CCCCN1C)c1ccccc1S2 (centres unmarked) [Thioridazine, reference compound] | 0.89 | 1.00 | 1.00 | 1.00 | 1.00 | 1.00 | 1.00 | 1.00
15 | COc1ccc(/C=C/C(=O)Nc2ccccc2C(=O)O)cc1OC [Tranilast, reference compound] | 0.10 | 0.020 | 0.13 | 0.030 | 0.17 | 0.73 | 0.30 | 0.12
16 | CC(c1cc2ccccc2s1)N(O)C(N)=O (centres unmarked) [Zileuton, reference compound] | 0.11 | 0.020 | 0.010 | 0.020 | 0.060 | 0.17 | 0.080 | 0.070

same assay, conditions: HL60, 4 h, 5 nM–100 µM, probability (0–1) of high-risk class, n = 2

Row | SMILES | CHI: Cell Health Index
17 | Cc1ccc(=O)n(-c2ccccc2)c1 [Pirfenidone, reference compound] | 0.17
18 | CC(CN1c2ccccc2Sc2ccccc21)N(C)C (centres unmarked) [Promethazine, reference compound] | 0.71
19 | NC(=O)c1ncn([C@@H]2O[C@H](CO)[C@@H](O)[C@H]2O)n1 [Ribavirin, reference compound] | 0.16
20 | CN(CCOc1ccc(CC2SC(=O)NC2=O)cc1)c1ccccn1 (centres unmarked) [Rosiglitazone, reference compound] | 0.37
21 | COc1cc2c(Nc3ccc(Cl)c(Cl)c3F)ncnc2cc1OC[C@@H]1C[C@@H]2CN(C)C[C@@H]2C1 [Tesevatinib, reference compound] | 0.92
22 | CSc1ccc2c(c1)N(CCC1CCCCN1C)c1ccccc1S2 (centres unmarked) [Thioridazine, reference compound] | 0.85
23 | COc1ccc(/C=C/C(=O)Nc2ccccc2C(=O)O)cc1OC [Tranilast, reference compound] | 0.32
24 | CC(c1cc2ccccc2s1)N(O)C(N)=O (centres unmarked) [Zileuton, reference compound] | 0.19
